Results taken from US8343531B2, “Composition containing peptide as active ingredient” (Meiji Co., Ltd., priority 2006, dated 2013).
Residues, ends and D or L forms follow the SMILES beside them.

Columns and labels:
Rat L6 myotubes = assay: Rate of glucose uptake into muscle cells; format: cell-based; conditions: 1 mM dipeptide, 3 hours, then 8 mM 2-deoxyglucose 10 minutes; average ± SD; control 1.21 ± 0.07
Method: Rat L6 myotubes were cultured in an Eagle medium containing 10% bovine serum (α-MEM) in a Petri dish coated with type 1 collagen in 5% CO2/95% O2. The cells were recovered by trypsin treatment in a usual manner and seeded at a density of 50,000 cells/well on a 48-well plate coated with type 1 collagen, and cultured for 3 days to make the cells confluent. After the medium was removed, 500 μL of an Eagle medium containing 2% bovine serum (α-MEM) was added to each well, and then the cells were cultured for 5 days thereby inducing differentiation. Each well was washed with 500 μL KRH buffer (136 mM NaCl, 4.7 mM KCl, 1.25 mM CaCl2, 1.25 mM MgSO4.7H2O, 20 mM Hepes, 1 mg/mL BSA, pH 7.4) carefully such that the cells were not detached. Then, […] KRH buffer containing 1 mM Ile-Leu, Ile-Trp, Ala-Leu, Val-Leu, Gly-Leu, Asp-Leu, Lys-Ile, Leu-Leu, Ile-Ile, Leu-Ile, Ile-Asn, Leu-Ala, Leu-Glu, Leu-Val or Ile-Val (Kokusan Chemical Co., Ltd.) was added to each well and reacted for 3 hours with the cells. Thereafter, the KRH buffer was removed, and […] buffer containing 8 mM 2-deoxyglucose was added to each well and reacted for accurately 10 minutes with for the cells. The reaction was terminated with […] 0.1 N NaOH, followed by neutralization with an equal volume of 0.1 N HCl, and then the amount of 2-deoxyglucose 6-phosphate in the cells was quantified by an enzymatic method to determine the rate of glucose uptake.

[1] = test system: isolated epitrochlearis muscles; assay: Rate of glucose uptake into isolated muscles; format: cell-based, Wister rats; conditions: 1 mM dipeptide, 30 min at 30° C., then 8 mM 2-deoxyglucose 20 min; average ± SD; control 0.95 ± 0.10
Method: Epitrochlearis muscles were excised from male Wister rats (each weighing 120 g) (16 rats) under pentobarbital anesthesia carefully so as not to hurt the epitrochlearis muscles. The epitrochlearis muscles were incubated at 35° C. for 1 hour in KRH buffer (136 mM NaCl, 4.7 mM KCl, 1.25 mM CaCl2, 1.25 mM MgSO4.7H2O, 20 mM Hepes, 1 mg/mL BSA, pH 7.4; referred to hereinafter as KRH buffer) containing 0.1% bovine serum albumin (BSA), 8 mM glucose and 32 mM mannitol, in 5% CO2/95% O2. Thereafter, the epitrochlearis muscles were removed and incubated (8 samples per group) at 30° C. for 30 minutes in KRH buffer containing 0.1% BSA, 40 mM mannitol, and 1 mM Ile-Leu (Kokusan Chemical Co., Ltd.), 1 mM Ile-Trp (Kokusan Chemical Co., Ltd.), or the milk whey protein hydrolysate containing 1 mM leucine in terms of amino acid, produced in Production Example 1, in 5% CO2/95% O2. Then, the epitrochlearis muscles were removed and incubated at 30° C. for accurately 20 minutes in KRH buffer containing 0.1% BSA, 32 mM mannitol and 8 mM 2-deoxyglucose, in 5% CO2/95% O2. […] Thereafter, the frozen epitrochlearis muscles were homogenized in 0.3 M perchloric acid aqueous solution, and after the resulting suspension was neutralized, the amount of 2-deoxyglucose-6-phosphate in the muscles was quantified by an enzymatic method to determine the rate of glucose uptake.

Wister rats = assay: Oral glucose tolerance test; format: in vivo; conditions: 0.1 g/kg BW oral with glucose 2.0 g/kg BW
Method: Male Wister rats each weighing about 360 g (6 rats per group) were used. The rats were fasted for 18 hours and then administered with 30% glucose aqueous solution in a dose of 2.0 g/kg body weight (BW). […] After 30, 60, 90, 120 and 180 minutes, blood was collected from a rat tail vein and measured for its blood glucose level with Diasensor (manufactured by ARKRAY, Inc.).

[2] = test system: isolated epitrochlearis muscles; assay: Influence of PI3K inhibitor and GLUT-4 inhibitor on the rate of glucose uptake into isolated muscles; format: cell-based, Wister rats; conditions: 1 mM Ile-Leu alone; average ± SD; control 0.95 ± 0.10
Method: Epitrochlearis muscles were excised from male Wister rats (each weighing 120 g) (8 samples per group) under pentobarbital anesthesia carefully so as not to hurt the epitrochlearis muscles. The epitrochlearis muscles were incubated at 35° C. for 1 hour in KRH buffer containing 0.1% BSA, 8 mM glucose and 32 mM mannitol, in 5% CO2/95% O2. Thereafter, the epitrochlearis muscles were removed and incubated at 30° C. for 30 minutes in KRH buffer containing 0.1% BSA, 40 mM mannitol, and 1 mM Ile-Leu (Kokusan Chemical Co., Ltd.), 1 mM Ile-Leu+10 μM LY294002 (Sigma) or 1 mM Ile-Leu+70 μM cytochalasin B (Sigma) in 5% CO2/95% O2. Then, the epitrochlearis muscles were removed and incubated at 30° C. for accurately 20 minutes in KRH buffer containing 0.1% BSA, 32 mM mannitol and 8 mM 2-deoxyglucose, in 5% CO2/95% O2. Immediately after incubation for accurately 20 minutes, the epitrochlearis muscles were frozen with liquid nitrogen. Thereafter, the frozen epitrochlearis muscles were homogenized in 0.3 M perchloric acid aqueous solution, and after the resulting suspension was neutralized, the amount of 2-deoxyglucose 6-phosphate in the muscles was quantified by an enzymatic method to determine the rate of glucose uptake.

Gly-Leu
Rate of glucose uptake into muscle cells (Rat L6 myotubes): 1.81 ± 0.04 nmol/min/well

Asp-Leu
Rate of glucose uptake into muscle cells (Rat L6 myotubes): 1.81 ± 0.50 nmol/min/well

Ile-Trp
Rate of glucose uptake into isolated skeletal muscles [1]: 1.92 ± 0.31 μmol/min/g muscle | Rate of glucose uptake into muscle cells (Rat L6 myotubes): 1.91 ± 0.06 nmol/min/well

Val-Leu
Rate of glucose uptake into muscle cells (Rat L6 myotubes): 1.76 ± 0.07 nmol/min/well

Leu-Ile
Rate of glucose uptake into muscle cells (Rat L6 myotubes): 1.73 ± 0.04 nmol/min/well

Ile-Asn
Rate of glucose uptake into muscle cells (Rat L6 myotubes): 1.92 ± 0.06 nmol/min/well

Ile-Val
Rate of glucose uptake into muscle cells (Rat L6 myotubes): 1.80 ± 0.07 nmol/min/well

Leu-Glu
Rate of glucose uptake into muscle cells (Rat L6 myotubes): 2.16 ± 0.05 nmol/min/well

Lys-Ile
Rate of glucose uptake into muscle cells (Rat L6 myotubes): 2.34 ± 0.06 nmol/min/well

Leu-Val
Rate of glucose uptake into muscle cells (Rat L6 myotubes): 1.74 ± 0.06 nmol/min/well

Ala-Leu
Rate of glucose uptake into muscle cells (Rat L6 myotubes): 1.91 ± 0.07 nmol/min/well

CC[C@H](C)[C@H](N)C(=O)N[C@@H](CC(C)C)C(=O)O [Ile-Leu, Isoleucyl leucine] (H-Ile-Leu-OH)
Rate of glucose uptake into isolated skeletal muscles [1]: 1.88 ± 0.40 μmol/min/g muscle | Blood glucose level (change) (Wister rats; 0 minute, fasted rats, average ± SD): 0 ± 0 mg/100 mL | Blood glucose level (change) (Wister rats; 30 minutes, glucose alone 62 ± 4): 44 ± 8 mg/100 mL | Blood glucose level (change) (Wister rats; 60 minutes, glucose alone 61 ± 4): 57 ± 7 mg/100 mL | Blood glucose level (change) (Wister rats; 90 minutes, glucose alone 57 ± 4): 35 ± 4 mg/100 mL | Blood glucose level (change) (Wister rats; 120 minutes, glucose alone 27 ± 6): 19 ± 3 mg/100 mL | Blood glucose level (change) (Wister rats; 180 minutes, glucose alone 5 ± 1): 1 ± 3 mg/100 mL | Rate of glucose uptake into muscle cells (Rat L6 myotubes): 1.61 ± 0.05 nmol/min/well | Rate of glucose uptake into isolated skeletal muscles [2]: 1.88 ± 0.40 μmol/min/g muscle

Leu-Ala
Rate of glucose uptake into muscle cells (Rat L6 myotubes): 2.09 ± 0.08 nmol/min/well

Ile-Ile
Rate of glucose uptake into muscle cells (Rat L6 myotubes): 1.88 ± 0.05 nmol/min/well

Leu-Leu
Rate of glucose uptake into muscle cells (Rat L6 myotubes): 1.75 ± 0.05 nmol/min/well
